# Results: ChEMBL document CHEMBL5316348, “Targeting the Epidermal Growth Factor Receptor with Molecular Degraders: State-of-the-Art and Future Opportunities” (J Med Chem, 2023)
# Legend:
# [1] = target: T1, von Hippel-Lindau disease tumor suppressor/Epidermal growth factor receptor (Homo sapiens, UniProt P00533+P40337); assay: Protac activity at VHL/EGFR deletion19 mutant in human HCC827 cells assessed as induction of protein degradation; assay type: cell-based
# [2] = system: von Hippel-Lindau disease tumor suppressor/Epidermal growth factor receptor (Homo sapiens), P00533+P40337 [UNDEFINED MUTATION]; assay: Protac activity at VHL/EGFR deletion19 mutant in human HCC827 cells assessed as induction of protein degradation by measuring maximal efficacy relative to control; assay type: cell-based
# [3] = system: BaF3; assay: Antitumor activity against mouse BaF3 cells expressing EGFR deletion19/T790M/C797S triple mutant implanted in […] BALB/c nude mouse model assessed as reduction in tumor volume at 40 mg/kg, po relative to control; assay type: functional; design: scale not given: the % may be the effect or the level left
# [4] = system: BaF3; assay: Antitumor activity against mouse BaF3 cells expressing EGFR deletion19/T790M/C797S triple mutant implanted in CDX BALB/c nude mouse model assessed as reduction in tumor volume at 40 mg/kg, po relative to control; assay type: functional; design: scale not given: the % may be the effect or the level left
# [5] = Oral bioavailability in mouse at 10 mg/kg; assay type: ADME, organism-based; settings: in vivo
# [6] = target: T2, Protein cereblon/Epidermal growth factor receptor (Homo sapiens, UniProt P00533+Q96SW2); assay: Protac activity at CRBN/wild type EGFR in human A549 cells assessed as induction of EGFR degradation incubated for 48 hrs by Western blot analysis; assay type: cell-based
# [7] = target: T2, Protein cereblon/Epidermal growth factor receptor; assay: Protac activity at CRBN/wild type EGFR in human A549 cells assessed as induction of EGFR degradation at 100 nM measured after 72 hrs by Western blot analysis relative to control; assay type: cell-based
# [8] = system: Protein cereblon/Epidermal growth factor receptor (Homo sapiens), P00533+Q96SW2 [L858R,T790M]; assay: Protac activity at CRBN/EGFR L858R/T790M double mutant in mouse BaF3 cells assessed as induction of protein degradation at 0.1 uM measured after 24 hrs by Western blot analysis relative to control; assay type: cell-based
# [9] = system: von Hippel-Lindau disease tumor suppressor/Epidermal growth factor receptor (Homo sapiens), P00533+P40337 [L858R]; assay: Protac activity at VHL/EGFR L858R mutant in human NCI-H3255 cells assessed as induction of protein degradation by measuring maximal efficacy incubated for 24 hrs by immunoblotting analysis relative to control; assay type: cell-based
# [10] = target: von Hippel-Lindau disease tumor suppressor/Epidermal growth factor receptor (Homo sapiens, UniProt P00533+P40337, L858R); assay: Protac activity at VHL/EGFR L858R mutant in human NCI-H3255 cells assessed as induction of protein degradation incubated for 24 hrs by immunoblotting analysis; assay type: cell-based
# [11] = system: von Hippel-Lindau disease tumor suppressor/Epidermal growth factor receptor (Homo sapiens), P00533+P40337 [UNDEFINED MUTATION]; assay: Protac activity at VHL/EGFR deletion19 mutant in human HCC827 cells assessed as induction of protein degradation by measuring maximal efficacy incubated for 24 hrs by immunoblotting analysis relative to control; assay type: cell-based
# [12] = target: T1, von Hippel-Lindau disease tumor suppressor/Epidermal growth factor receptor; assay: Protac activity at VHL/EGFR deletion19 mutant in human HCC827 cells assessed as induction of protein degradation incubated for 24 hrs by immunoblotting analysis; assay type: cell-based
# [13] = target: Epidermal growth factor receptor (Homo sapiens, UniProt P00533); assay: Inhibition of wild type EGFR (unknown origin) preincubated for 5 mins followed by substrate and ATP addition and further incubated for 30 mins by HTRF assay
# [14] = target: Epidermal growth factor receptor (Homo sapiens, UniProt P00533, T790M)
# Sequence of Epidermal growth factor receptor (Homo sapiens, UniProt P00533, T790M) (P00533 25-1210 T790M limits assumed): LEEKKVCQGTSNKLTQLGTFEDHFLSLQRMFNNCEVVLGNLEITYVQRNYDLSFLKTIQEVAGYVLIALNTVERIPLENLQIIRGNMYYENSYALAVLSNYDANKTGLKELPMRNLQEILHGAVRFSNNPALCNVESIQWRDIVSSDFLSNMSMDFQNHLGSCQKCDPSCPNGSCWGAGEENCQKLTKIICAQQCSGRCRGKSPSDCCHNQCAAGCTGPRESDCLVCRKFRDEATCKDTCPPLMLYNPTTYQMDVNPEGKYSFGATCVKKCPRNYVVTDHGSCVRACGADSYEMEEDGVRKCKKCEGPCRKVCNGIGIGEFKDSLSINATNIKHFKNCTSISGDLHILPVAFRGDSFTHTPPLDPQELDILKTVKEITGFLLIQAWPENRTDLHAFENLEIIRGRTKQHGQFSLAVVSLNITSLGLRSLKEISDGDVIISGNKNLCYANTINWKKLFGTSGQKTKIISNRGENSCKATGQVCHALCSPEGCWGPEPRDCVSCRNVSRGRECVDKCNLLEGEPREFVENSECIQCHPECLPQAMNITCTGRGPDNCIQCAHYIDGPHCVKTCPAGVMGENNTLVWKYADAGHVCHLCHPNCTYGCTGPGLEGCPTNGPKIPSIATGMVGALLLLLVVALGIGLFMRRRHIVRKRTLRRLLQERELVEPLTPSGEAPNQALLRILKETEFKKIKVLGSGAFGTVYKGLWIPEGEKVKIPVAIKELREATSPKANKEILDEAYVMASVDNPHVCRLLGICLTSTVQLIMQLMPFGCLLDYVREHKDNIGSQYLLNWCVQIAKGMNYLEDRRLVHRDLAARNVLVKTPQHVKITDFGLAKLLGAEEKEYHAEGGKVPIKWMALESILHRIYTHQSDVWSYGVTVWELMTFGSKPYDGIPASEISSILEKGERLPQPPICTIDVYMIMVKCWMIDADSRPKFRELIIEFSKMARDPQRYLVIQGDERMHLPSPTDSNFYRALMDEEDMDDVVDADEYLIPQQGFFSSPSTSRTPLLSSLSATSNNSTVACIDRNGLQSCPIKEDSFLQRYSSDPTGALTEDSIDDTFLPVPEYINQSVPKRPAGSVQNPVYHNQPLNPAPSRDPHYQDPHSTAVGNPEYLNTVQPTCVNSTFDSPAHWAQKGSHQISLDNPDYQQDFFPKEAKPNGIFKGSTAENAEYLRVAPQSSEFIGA
# T1 sequence (P00533 25-1210 limits assumed, stated change not applied): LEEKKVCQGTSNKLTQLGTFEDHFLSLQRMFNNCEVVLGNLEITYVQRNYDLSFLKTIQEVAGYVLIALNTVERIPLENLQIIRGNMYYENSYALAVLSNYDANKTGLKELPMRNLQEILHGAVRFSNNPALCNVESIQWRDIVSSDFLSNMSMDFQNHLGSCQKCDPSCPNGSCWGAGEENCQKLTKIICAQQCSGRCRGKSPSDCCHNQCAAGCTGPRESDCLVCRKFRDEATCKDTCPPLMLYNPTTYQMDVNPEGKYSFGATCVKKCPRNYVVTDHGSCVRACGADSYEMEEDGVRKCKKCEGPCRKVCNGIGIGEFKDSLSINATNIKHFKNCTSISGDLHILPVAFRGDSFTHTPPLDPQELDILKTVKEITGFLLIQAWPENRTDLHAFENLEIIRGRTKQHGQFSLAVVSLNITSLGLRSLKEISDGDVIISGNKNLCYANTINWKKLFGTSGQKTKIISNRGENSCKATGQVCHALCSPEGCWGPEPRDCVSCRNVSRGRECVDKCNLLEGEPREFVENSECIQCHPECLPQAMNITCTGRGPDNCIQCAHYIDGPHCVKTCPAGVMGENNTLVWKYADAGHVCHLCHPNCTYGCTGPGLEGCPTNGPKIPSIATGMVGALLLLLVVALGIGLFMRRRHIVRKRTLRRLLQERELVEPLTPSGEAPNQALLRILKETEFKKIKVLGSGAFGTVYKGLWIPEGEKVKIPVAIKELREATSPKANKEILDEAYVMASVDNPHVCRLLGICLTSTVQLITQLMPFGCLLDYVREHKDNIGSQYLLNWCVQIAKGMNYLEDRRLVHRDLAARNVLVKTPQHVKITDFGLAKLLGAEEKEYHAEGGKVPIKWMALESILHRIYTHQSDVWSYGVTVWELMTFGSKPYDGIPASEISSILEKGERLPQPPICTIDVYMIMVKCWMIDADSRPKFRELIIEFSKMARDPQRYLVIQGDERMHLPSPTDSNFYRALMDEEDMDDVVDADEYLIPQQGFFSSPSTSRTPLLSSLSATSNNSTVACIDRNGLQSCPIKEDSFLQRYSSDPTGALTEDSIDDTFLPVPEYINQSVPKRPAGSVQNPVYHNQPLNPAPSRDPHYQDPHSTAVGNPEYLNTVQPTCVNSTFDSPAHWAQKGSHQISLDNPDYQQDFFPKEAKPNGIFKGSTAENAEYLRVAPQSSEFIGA
# T1 sequence (P40337 whole entry, stated change not applied): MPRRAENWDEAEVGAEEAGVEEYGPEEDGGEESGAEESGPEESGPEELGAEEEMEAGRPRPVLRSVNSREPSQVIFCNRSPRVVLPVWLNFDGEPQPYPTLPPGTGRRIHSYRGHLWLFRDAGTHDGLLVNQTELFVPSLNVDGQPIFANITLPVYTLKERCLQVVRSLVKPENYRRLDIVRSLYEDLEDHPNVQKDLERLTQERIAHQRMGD
# Sequence of von Hippel-Lindau disease tumor suppressor/Epidermal growth factor receptor (Homo sapiens), P00533+P40337 [UNDEFINED MUTATION] (P00533 whole entry, looked up, stated change not applied): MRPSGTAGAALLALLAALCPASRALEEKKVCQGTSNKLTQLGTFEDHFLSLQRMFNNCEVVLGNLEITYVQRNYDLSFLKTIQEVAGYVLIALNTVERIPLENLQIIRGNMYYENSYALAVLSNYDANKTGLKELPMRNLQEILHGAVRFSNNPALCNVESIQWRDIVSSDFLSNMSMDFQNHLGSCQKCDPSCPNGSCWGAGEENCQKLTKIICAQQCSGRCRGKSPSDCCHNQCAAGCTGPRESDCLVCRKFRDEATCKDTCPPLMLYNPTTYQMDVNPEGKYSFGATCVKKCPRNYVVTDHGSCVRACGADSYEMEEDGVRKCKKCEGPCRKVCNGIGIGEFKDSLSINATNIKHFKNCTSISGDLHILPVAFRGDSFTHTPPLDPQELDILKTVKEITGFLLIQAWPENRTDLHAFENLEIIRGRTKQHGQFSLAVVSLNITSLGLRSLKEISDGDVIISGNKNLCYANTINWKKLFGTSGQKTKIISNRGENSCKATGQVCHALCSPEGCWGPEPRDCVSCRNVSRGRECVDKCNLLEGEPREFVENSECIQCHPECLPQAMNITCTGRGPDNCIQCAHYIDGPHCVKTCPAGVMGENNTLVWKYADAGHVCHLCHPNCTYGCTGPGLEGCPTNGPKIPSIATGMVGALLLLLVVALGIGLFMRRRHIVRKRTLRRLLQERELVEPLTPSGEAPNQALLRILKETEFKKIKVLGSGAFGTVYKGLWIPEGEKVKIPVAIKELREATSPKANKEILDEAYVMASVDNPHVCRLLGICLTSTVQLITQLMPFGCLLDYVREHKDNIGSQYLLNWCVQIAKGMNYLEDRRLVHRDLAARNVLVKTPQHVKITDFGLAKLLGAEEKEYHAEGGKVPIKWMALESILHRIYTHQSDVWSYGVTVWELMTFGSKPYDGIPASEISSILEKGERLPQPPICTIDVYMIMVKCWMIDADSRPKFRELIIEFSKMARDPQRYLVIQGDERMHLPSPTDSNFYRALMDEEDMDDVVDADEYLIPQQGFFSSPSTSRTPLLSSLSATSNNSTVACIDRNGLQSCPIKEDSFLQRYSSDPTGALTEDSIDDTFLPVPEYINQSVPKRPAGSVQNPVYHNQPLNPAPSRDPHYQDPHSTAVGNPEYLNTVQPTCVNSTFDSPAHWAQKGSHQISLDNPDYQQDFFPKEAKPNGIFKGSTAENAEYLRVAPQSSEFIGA
# Sequence of von Hippel-Lindau disease tumor suppressor/Epidermal growth factor receptor (Homo sapiens), P00533+P40337 [UNDEFINED MUTATION] (P40337 whole entry, looked up, stated change not applied): as the sequence (P40337 whole entry, stated change not applied) above
# Sequence of Epidermal growth factor receptor (Homo sapiens, UniProt P00533) (P00533 whole entry): as the sequence (P00533 whole entry, looked up, stated change not applied) above
smiles,measurement,setting,value
Cc1ncsc1-c1ccc(CNC(=O)[C@@H]2C[C@@H](O)CN2C[C@@H](NC(=O)CCCCCCCCCCn2cc(COc3cc4ncnc(Nc5ccc(F)c(Cl)c5)c4cc3NC(=O)/C=C/CN3CCCCC3)nn2)C(C)(C)C)cc1,EC50,[1],3.57 nM
same,Emax,[2],91%
COc1cc(N2CCC(N3CCN(CCC#Cc4cccc5c4CN(C4CCC(=O)NC4=O)C5=O)CC3)CC2)ccc1Nc1ncc(Cl)c(Nc2ccccc2P(C)(C)=O)n1 (centres undefined),Activity,[3],67%
same,Activity,[4],84%
same,bioavailability,[5],62.8%
Cn1c(=O)c(C(=O)NNCCOCCOCC(=O)Nc2cccc3c2C(=O)N(C2CCC(=O)NC2=O)C3=O)nc2ccccc21 (centres undefined),EC50,[6],32.9 nM
same,Emax,[7],96%
O=C1CCC(N2C(=O)c3cccc(NCCOCCOCCOCCN4CCN(c5ccc(-c6ccc7c(c6)C(=O)N(C(C(=O)Nc6nccs6)c6ccccc6)C7)cn5)CC4)c3C2=O)C(=O)N1 (centres undefined),Emax,[8],56%
COc1cc2ncnc(Nc3ccc(F)c(Cl)c3)c2cc1OCCCCCOCCOCCC(=O)N[C@H](C(=O)N1C[C@H](O)C[C@H]1C(=O)NCc1ccc(-c2scnc2C)cc1)C(C)(C)C,Emax,[9],96.6%
same,EC50,[10],22.3 nM
same,Emax,[11],98.9%
same,EC50,[12],11.7 nM
CN1C(=O)C(C(=O)NN)N(C)c2ccccc21 (centres undefined),IC50,[13],100 nM
same,IC50,[14],4020 nM
